From PubChem BioAssay AID2060489 (Molecular Pharmacology Branch, DTP, NCI, 2025)
Each block holds one compound with its values, some of them ahead of it.

Tested on: 922993-354-T-J3-PDC complex spheroids, viability
Assay: Anticancer human tumor 922993-354-T-J3-PDC patient-derived endometrial carcinoma cell line growth inhibition [GQUAD]
Settings: for viability, T/C: stronger effect = lower value
From the text: DNA G-quadruplex Stabilizer Agents in Combinations in Complex Spheroids
A high-throughput screen of multi-cell type tumor spheroids was designed to identify active combinations of DNA G-quadruplex stabilizer agents and targeted small molecules. Complex spheroids include a stromal component modeled by human endothelial cells (HUVEC) and fibroblasts modeled by human mesenchymal stem cells (MSCs). The concentration ranges selected for each drug and investigational agent were based upon clinically achievable concentrations if the clinical Cmax of the agent was known.
Compounds. The drugs and investigational agents: pidnarulex (CX-5461; NSC782164), APTO-253 (NSC789042), BRACO-19 (NSC847499), peposertib (NSC802822), ceralasertib (NSC780249), elimusertib (NSC800525), camonsertib (NSC841442), AZD-1390 (NSC803789), olaparib (NSC753686), talazoparib (NSC767125), ART-558 (NSC835418), sotorasib (NSC818433), MRTX-1133 (NSC836407), SN-38 (NSC673596), topotecan (NSC609699), etoposide (NSC141540), doxorubicin (NSC123127), gemcitabine (NSC613327), 5-fluorouracil (NSC19893), paclitaxel (NSC125973), vemurafenib (NSC761431), panobinostat (NSC761190), R-306465 (JNJ-16241199; NSC773264), adavosertib (NSC754352), TP-3654 (NSC805149), carboplatin (NSC241240), KSQ-4279 (NSC840948), and staurosporine (NSC755774) were obtained from the National Cancer Institute (NCI) Developmental Therapeutics Program Chemical Repository (34). The FDA-approved anticancer drug set is available from the NCI Developmental Therapeutics Program. […] The stock solutions were prepared in dimethyl sulfoxide (DMSO, Sigma-Aldrich, St. Louis, MO, cat. D2650) at 800-fold the tested concentration and stored at -70 degrees C prior to their use. All drugs and investigational agents were tested over a range starting from a high concentration at or near the clinical Cmax and decreasing in half-log increments. If the clinical Cmax for an agent had not been determined, the highest concentration tested was 10 microM.
2.3 Cell Culture. All cells were maintained in an incubator at 37 degrees C and 5% CO2 with 95% humidity. The PDC lines were cultured according to standard operating procedures established by the NCI PDMR. All PDCs were thawed and cultured in Matrigel-coated flasks prepared with a working solution of 1X Ham's F-12 nutrient mix, without supplementation (Invitrogen, cat. 11765054), 100 U/mL penicillin-streptomycin (Invitrogen, cat. 15140122), and 2.5% Matrigel (Corning Inc., cat. 354248) for the first three passages. The 857933-349-R-J2-PDC line was cultured in 6C/Colon 1B media, which includes advanced DMEM/F-12 (Thermo Fisher Scientific, cat. 12634028), 10 mM HEPES (Thermo Fisher Scientific, cat. 15630080), 1X GlutaMAX supplement (Thermo Fisher Scientific, cat. 35050061), 0.1 mg/mL primocin (InvivoGen, cat. ant-pm-2), 10% defined fetal bovine serum, heat inactivated (HyClone Laboratories Inc., cat. SH30070.03HI), 50% L-WRN conditioned media (ATCC, cat. CRL-3276), 1.25 mM N-Acetyl-L-cysteine (Sigma-Aldrich, cat. A9165), 10 mM nicotinamide (Sigma-Aldrich, cat. N0636), 1X B-27 supplement (Thermo Fisher Scientific, cat. 17504044), 1X N-2 supplement (Thermo Fisher Scientific, cat. 17502048), 10 microM Y-27632 dihydrochloride (Tocris Bioscience, cat. 1254), and 50 ng/mL human EGF recombinant protein (Thermo Fisher Scientific, cat. PHG0311). The 485176-168-R4-J1-PDC line was cultured in Panc media, which includes all 6C/Colon 1B media components plus 100 ng/mL human FGF-10 (Thermo Fisher Scientific, cat. 100-26), 500 nM SB-431542 (Selleckchem, cat. S1067), and gastrin (Tocris, cat. 3006).
[…]

[1] = curve of first compound, second compound 0.0316 µM
[2] = curve of first compound, second compound 0.1 µM
[3] = curve of first compound, second compound 0.316 µM
[4] = curve of first compound, second compound 1 µM
[5] = curve of first compound, second compound 3.16 µM
[6] = curve of first compound, second compound 10 µM
[7] = second compound 0.0316 µM, first compound 0.0316 µM
[8] = second compound 0.0316 µM, first compound 0.1 µM
[9] = second compound 0.0316 µM, first compound 0.316 µM
[10] = second compound 0.0316 µM, first compound 1 µM
[11] = second compound 0.0316 µM, first compound 3.16 µM
[12] = second compound 0.0316 µM, first compound 10 µM
[13] = second compound 0.1 µM, first compound 0.0316 µM
[14] = second compound 0.1 µM, first compound 0.1 µM
[15] = second compound 0.1 µM, first compound 0.316 µM
[16] = second compound 0.1 µM, first compound 1 µM
[17] = second compound 0.1 µM, first compound 3.16 µM
[18] = second compound 0.1 µM, first compound 10 µM
[19] = second compound 0.316 µM, first compound 0.0316 µM
[20] = second compound 0.316 µM, first compound 0.1 µM
[21] = second compound 0.316 µM, first compound 0.316 µM
[22] = second compound 0.316 µM, first compound 1 µM
[23] = second compound 0.316 µM, first compound 3.16 µM
[24] = second compound 0.316 µM, first compound 10 µM
[25] = second compound 1 µM, first compound 0.0316 µM
[26] = second compound 1 µM, first compound 0.1 µM
[27] = second compound 1 µM, first compound 0.316 µM
[28] = second compound 1 µM, first compound 1 µM
[29] = second compound 1 µM, first compound 3.16 µM
[30] = second compound 1 µM, first compound 10 µM
[31] = second compound 3.16 µM, first compound 0.0316 µM
[32] = second compound 3.16 µM, first compound 0.1 µM
[33] = second compound 3.16 µM, first compound 0.316 µM
[34] = second compound 3.16 µM, first compound 1 µM
[35] = second compound 3.16 µM, first compound 3.16 µM
[36] = second compound 3.16 µM, first compound 10 µM
[37] = second compound 10 µM, first compound 0.0316 µM
[38] = second compound 10 µM, first compound 0.1 µM
[39] = second compound 10 µM, first compound 0.316 µM
[40] = second compound 10 µM, first compound 1 µM
[41] = second compound 10 µM, first compound 3.16 µM
[42] = second compound 10 µM, first compound 10 µM
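Further: spheroids exposed to compounds for seven days.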
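Wherever viability, T/C is given: 100% = DMSO vehicle control viability.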

IC50 [1]: 7.86 µM
IC50 [2]: 5.47 µM
IC50 [3]: 0.172 µM
IC50 [4]: > 10 µM
IC50 [5]: > 10 µM
IC50 [6]: < 0.0316 µM
SMILES: CC1COCCN1c1cc(C2(S(C)(=N)=O)CC2)nc(-c2ccnc3[nH]ccc23)n1 (stereo unspecified) + Cc1cnc(CNC(=O)c2c(=O)c3ccc(N4CCCN(C)CC4)nc3n3c2sc2ccccc23)cn1
viability, T/C [7]: 87.9%
viability, T/C [8]: 79.4%
viability, T/C [9]: 82.8%
viability, T/C [10]: 67.9%
viability, T/C [11]: 91.5%
viability, T/C [12]: 41.6%
viability, T/C [13]: 70.4%
viability, T/C [14]: 63.5%
viability, T/C [15]: 55.2%
viability, T/C [16]: 61%
viability, T/C [17]: 66%
viability, T/C [18]: 35.5%
viability, T/C [19]: 59.9%
viability, T/C [20]: 50.7%
viability, T/C [21]: 50.9%
viability, T/C [22]: 38.8%
viability, T/C [23]: 50.5%
viability, T/C [24]: 39.2%
viability, T/C [25]: 46.3%
viability, T/C [26]: 60.1%
viability, T/C [27]: 51.7%
viability, T/C [28]: 45.2%
viability, T/C [29]: 48.5%
viability, T/C [30]: 53.3%
viability, T/C [31]: 49.1%
viability, T/C [32]: 52.8%
viability, T/C [33]: 54.4%
viability, T/C [34]: 48%
viability, T/C [35]: 54.4%
viability, T/C [36]: 52.5%
viability, T/C [37]: 51.8%
viability, T/C [38]: 42.9%
viability, T/C [39]: 54%
viability, T/C [40]: 50.6%
viability, T/C [41]: 47.3%
viability, T/C [42]: 53.6%

SMILES: CC(=O)O[C@H]1C(=O)[C@@]2(C)[C@H]([C@H](OC(=O)c3ccccc3)[C@]3(O)C[C@H](OC(=O)[C@H](O)[C@@H](NC(=O)c4ccccc4)c4ccccc4)C(C)=C1C3(C)C)[C@]1(OC(C)=O)CO[C@@H]1C[C@@H]2O + CN(C)c1ccc(Nc2c3ccc(NC(=O)CCN4CCCC4)cc3nc3cc(NC(=O)CCN4CCCC4)ccc23)cc1
IC50 [1]: 7.96 µM
IC50 [2]: 8.65 µM
IC50 [3]: > 10 µM
IC50 [4]: > 10 µM
IC50 [5]: > 10 µM
IC50 [6]: > 10 µM
viability, T/C [7]: 86.5%
viability, T/C [8]: 79%
viability, T/C [9]: 104%
viability, T/C [10]: 104%
viability, T/C [11]: 65.3%
viability, T/C [12]: 46.2%
viability, T/C [13]: 83.4%
viability, T/C [14]: 90.2%
viability, T/C [15]: 113%
viability, T/C [16]: 101%
viability, T/C [17]: 67.3%
viability, T/C [18]: 47.5%
viability, T/C [19]: 73.5%
viability, T/C [20]: 82.3%
viability, T/C [21]: 116%
viability, T/C [22]: 85.6%
viability, T/C [23]: 72%
viability, T/C [24]: 57.5%
viability, T/C [25]: 81.1%
viability, T/C [26]: 99.5%
viability, T/C [27]: 96.4%
viability, T/C [28]: 69.5%
viability, T/C [29]: 80%
viability, T/C [30]: 51.8%
viability, T/C [31]: 93.7%
viability, T/C [32]: 116%
viability, T/C [33]: 103%
viability, T/C [34]: 92.5%
viability, T/C [35]: 82.6%
viability, T/C [36]: 53.5%
viability, T/C [37]: 99.7%
viability, T/C [38]: 122%
viability, T/C [39]: 125%
viability, T/C [40]: 130%
viability, T/C [41]: 77.6%
viability, T/C [42]: 67.1%

IC50 (compound alone, run of 03/26/2024): > 10 µM
SMILES: CN(C)c1ccc(Nc2c3ccc(NC(=O)CCN4CCCC4)cc3nc3cc(NC(=O)CCN4CCCC4)ccc23)cc1
viability, T/C (compound 0.316 µM): 99.4% [middle of 12 runs]
